The values below are quoted from earlier work in publication PMC12399788, “A Comparison of the Molecular Pharmacological Properties of Current Short, Long, and Ultra‐Long‐Acting β2‐Agonists Used for Asthma and COPD” (Pharmacology Research & Perspectives, 2025).

Bounds are passed on as bounds.

One series concerns conscious guinea pigs. The following applies: equipotent nebulized agents.
The subject of a further series is guinea pig tracheal. Details: method as in PMID 20402514. Particulars: guinea pig tracheal studies.
In a further series the test system is human lung (mast cells). The following applies: histamine release from human lung (mast cells).

Regarding `COc1ccc(CC(C)NCC(O)c2ccc(O)c(NC=O)c2)cc1` (centres unmarked) [Formoterol, formoterol], the bronchodilation duration with conscious guinea pigs is 3 h. In the series with human trachea, the duration of action is reported as 34 min and the “duration of action relative to salbutamol” value is 4.5 times longer. In addition, in the series on guinea pig tracheal, the duration is given as 1.2 h.
For the compound `CCc1cc2c(cc1CC)CC(NC[C@H](O)c1ccc(O)c3[nH]c(=O)ccc13)C2` [Indacaterol, indacaterol], the duration entry with guinea pig tracheal was “over 12 h”.
In the case of `CC(C)(C)NCC(O)c1ccc(O)c(CO)c1` (centres unmarked) [Salbutamol, salbutamol], in the series on conscious guinea pigs, the bronchodilation duration entry is “less than 1.5 h”. The duration of action in the series with human trachea is 7.6 min. Also, the “time by which response was lost” value in the series on human lung (mast cells) is listed as at most 4 h. Moreover, in the series with guinea pig tracheal, the duration is 0.9 h.
In the case of `OCc1cc(C(O)CNCCCCCCOCCCCc2ccccc2)ccc1O` (centres unmarked) [Salmeterol, salmeterol], the “bronchodilation at 6 h” value in the series with conscious guinea pigs (6 h) is “no reduction”. Moreover, in the series with human lung (mast cells) (at 20 h), the “response remaining (% maximal)” value is on record as 75%.
